Data reported in ChEMBL document CHEMBL1154296, “Potent inhibitors of beta-tryptase and human leukocyte elastase based on the MCoTI-II scaffold” (J Med Chem, 2009).
Starred links: 1 amine or outer side, 2 acyl side, 3 side chain; linkers in the order of their positions; H or OH if unused. Positions of bridges follow the written chain, without caps; N, C: chain ends. Non-standard residues stand in square brackets, D forms with d. Residues, ends and D or L forms follow the SMILES beside them. X2 = N=C(N)NCCC[C@@H](C(=O)[C@H](CCC(N)=O)N[*:1])C(=O)[*:2]; X1 = NCCCC[C@@H](C(=O)[C@H](CCCCN)N[*:1])C(=O)[*:2]

Legend:
[1] = Inhibition of trypsin by substrate hydrolysis based fluorescence assay
[2] = Inhibition of tryptase by substrate hydrolysis based fluorescence assay
[3] = target: T1, Neutrophil elastase (Homo sapiens, UniProt P08246); experiment: Inhibition of human leukocyte elastase by substrate hydrolysis based fluorescence assay
T1 sequence (P08246 whole entry): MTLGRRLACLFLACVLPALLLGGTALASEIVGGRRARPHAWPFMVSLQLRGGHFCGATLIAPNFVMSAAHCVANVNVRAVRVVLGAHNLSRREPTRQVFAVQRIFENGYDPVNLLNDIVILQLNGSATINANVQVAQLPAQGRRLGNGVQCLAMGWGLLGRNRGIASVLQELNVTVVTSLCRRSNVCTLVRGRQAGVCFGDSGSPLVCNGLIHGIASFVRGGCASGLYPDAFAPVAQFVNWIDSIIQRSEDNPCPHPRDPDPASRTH

Row | SMILES | Ki [1] [nM] | Ki [2] [nM] | Ki ([3]; read-out: Ki) [nM] | Ki [3]
1 | CC[C@H](C)[C@@H]1NC(=O)[C@@H]2CSSC[C@@H]3NC(=O)[C@H](C(C)C)NC(=O)CNC(=O)CNC(=O)[C@H](CC(=O)O)NC(=O)[C@H](CO)NC(=O)CNC(=O)[C@H](CO)NC(=O)CNC(=O)[C@@H]4CSSC[C@H](NC(=O)[C@H](CC(=O)O)NC(=O)[C@H](CO)NC(=O)[C@H](CC(=O)O)NC(=O)[C@H](CCCNC(=N)N)NC(=O)[C@H](CCCNC(=N)N)NC(=O)[C@H](CSSC[C@H](NC1=O)C(=O)N[C@@H](CCCNC(=N)N)C(=O)NCC(=O)N[C@@H](CC(N)=O)C(=O)NCC(=O)N[C@@H](Cc1ccc(O)cc1)C(=O)N4)NC(=O)[C@@H](CCCNC(=N)N)C(=O)[C@H](CCC(N)=O)NC(=O)[C@H](CC(C)C)NC(=O)[C@H]([C@@H](C)CC)NC(=O)[C@H](Cc1ccccc1)NC(=O)[C@@H]1CCCN1C3=O)C(=O)N1CCC[C@H]1C(=O)NCC(=O)N[C@@H](C)C(=O)N2 (cyclo(ACICRGNGYCGSGSDGGVCPFIL[X2]CRRDSDCPG); disulfide 2-19, 4-25, 10-31) | > 0.105 | > 50000 | > 7500 | –
2 | CC[C@H](C)[C@@H]1NC(=O)[C@@H]2CSSC[C@@H]3NC(=O)[C@H](C(C)C)NC(=O)CNC(=O)CNC(=O)[C@H](CC(=O)O)NC(=O)[C@H](CO)NC(=O)CNC(=O)[C@H](CO)NC(=O)CNC(=O)[C@@H]4CSSC[C@H](NC(=O)[C@H](CC(=O)O)NC(=O)[C@H](CO)NC(=O)[C@H](CC(=O)O)NC(=O)[C@H](CCCNC(=N)N)NC(=O)[C@H](CCCNC(=N)N)NC(=O)[C@H](CSSC[C@H](NC1=O)C(=O)N[C@@H](CCCNC(=N)N)C(=O)NCC(=O)N[C@@H](CC(N)=O)C(=O)NCC(=O)N[C@@H](Cc1ccc(O)cc1)C(=O)N4)NC(=O)[C@@H](CCCCN)C(=O)[C@H](CCCCN)NC(=O)[C@H](CC(C)C)NC(=O)[C@H]([C@@H](C)CC)NC(=O)[C@H](CCCCN)NC(=O)[C@@H]1CCCN1C3=O)C(=O)N1CCC[C@H]1C(=O)NCC(=O)N[C@@H](C)C(=O)N2 (cyclo(ACICRGNGYCGSGSDGGVCPKIL[X1]CRRDSDCPG); disulfide 2-19, 4-25, 10-31) | 0.075 | 600 | – | Not Active
3 | CC[C@H](C)[C@@H]1NC(=O)[C@@H]2CSSC[C@@H]3NC(=O)[C@H](C(C)C)NC(=O)CNC(=O)CNC(=O)[C@H](CC(=O)O)NC(=O)[C@H](CO)NC(=O)CNC(=O)[C@H](CO)NC(=O)CNC(=O)[C@@H]4CSSC[C@H](NC(=O)[C@H](CC(=O)O)NC(=O)[C@H](CO)NC(=O)[C@H](CC(=O)O)NC(=O)[C@H](CCCNC(=N)N)NC(=O)[C@H](CCCNC(=N)N)NC(=O)[C@H](CSSC[C@H](NC1=O)C(=O)N[C@@H](CCCNC(=N)N)C(=O)NCC(=O)N[C@@H](CC(N)=O)C(=O)NCC(=O)N[C@@H](Cc1ccc(O)cc1)C(=O)N4)NC(=O)[C@@H](CCCNC(=N)N)C(=O)[C@H](CCC(N)=O)NC(=O)[C@H](CC(C)C)NC(=O)[C@H]([C@@H](C)CC)NC(=O)[C@H](CCCCN)NC(=O)[C@@H]1CCCN1C3=O)C(=O)N1CCC[C@H]1C(=O)NCC(=O)N[C@@H](C)C(=O)N2 (cyclo(ACICRGNGYCGSGSDGGVCPKIL[X2]CRRDSDCPG); disulfide 2-19, 4-25, 10-31) | 0.029 | 1600 | – | Not Active
4 | CC[C@H](C)[C@@H]1NC(=O)[C@@H]2CSSC[C@@H]3NC(=O)[C@H](C(C)C)NC(=O)CNC(=O)CNC(=O)[C@H](CC(=O)O)NC(=O)[C@H](CO)NC(=O)CNC(=O)[C@H](CO)NC(=O)CNC(=O)[C@@H]4CSSC[C@H](NC(=O)[C@H](CC(=O)O)NC(=O)[C@H](CO)NC(=O)[C@H](CC(=O)O)NC(=O)[C@H](CCCNC(=N)N)NC(=O)[C@H](CCCNC(=N)N)NC(=O)[C@H](CSSC[C@H](NC1=O)C(=O)N[C@@H](CCCNC(=N)N)C(=O)NCC(=O)N[C@@H](CC(N)=O)C(=O)NCC(=O)N[C@@H](Cc1ccc(O)cc1)C(=O)N4)NC(=O)[C@@H](CCCNC(=N)N)C(=O)[C@H](CCC(N)=O)NC(=O)[C@H](CC(C)C)NC(=O)[C@H]([C@@H](C)CC)NC(=O)[C@H](CCC(N)=O)NC(=O)[C@@H]1CCCN1C3=O)C(=O)N1CCC[C@H]1C(=O)NCC(=O)N[C@@H](C)C(=O)N2 (cyclo(ACICRGNGYCGSGSDGGVCPQIL[X2]CRRDSDCPG); disulfide 2-19, 4-25, 10-31) | > 0.106 | > 50000 | – | Not Active
5 | CC[C@H](C)[C@@H]1NC(=O)[C@@H]2CSSC[C@@H]3NC(=O)[C@H](C(C)C)NC(=O)CNC(=O)CNC(=O)[C@H](CC(=O)O)NC(=O)[C@H](CO)NC(=O)CNC(=O)[C@H](CO)NC(=O)CNC(=O)[C@@H]4CSSC[C@H](NC(=O)[C@H](CC(=O)O)NC(=O)[C@H](CO)NC(=O)[C@H](CC(=O)O)NC(=O)[C@H](CCCNC(=N)N)NC(=O)[C@H](CCCNC(=N)N)NC(=O)[C@H](CSSC[C@H](NC1=O)C(=O)N[C@@H](CCCNC(=N)N)C(=O)NCC(=O)N[C@@H](CC(N)=O)C(=O)NCC(=O)N[C@@H](Cc1ccc(O)cc1)C(=O)N4)NC(=O)[C@@H](CCCNC(=N)N)C(=O)[C@H](CCC(N)=O)NC(=O)[C@H](CC(C)C)NC(=O)[C@H]([C@@H](C)CC)NC(=O)[C@H](CCCNC(=N)N)NC(=O)[C@@H]1CCCN1C3=O)C(=O)N1CCC[C@H]1C(=O)NCC(=O)N[C@@H](C)C(=O)N2 (cyclo(ACICRGNGYCGSGSDGGVCPRIL[X2]CRRDSDCPG); disulfide 2-19, 4-25, 10-31) | 0.085 | 100 | – | Not Active
6 | CC[C@H](C)[C@@H]1NC(=O)[C@@H]2CSSC[C@@H]3NC(=O)[C@H](C(C)C)NC(=O)CNC(=O)CNC(=O)[C@H](CC(=O)O)NC(=O)[C@H](CO)NC(=O)CNC(=O)[C@H](CO)NC(=O)CNC(=O)[C@@H]4CSSC[C@H](NC(=O)[C@H](CC(=O)O)NC(=O)[C@H](CO)NC(=O)[C@H](CC(=O)O)NC(=O)[C@H](CCCNC(=N)N)NC(=O)[C@H](CCCNC(=N)N)NC(=O)[C@H](CSSC[C@H](NC1=O)C(=O)N[C@@H](CCCNC(=N)N)C(=O)NCC(=O)N[C@@H](CC(N)=O)C(=O)NCC(=O)N[C@@H](Cc1ccc(O)cc1)C(=O)N4)NC(=O)[C@@H](CCCNC(=N)N)C(=O)[C@H](CCC(N)=O)NC(=O)[C@H](CC(C)C)NC(=O)[C@H]([C@@H](C)CC)NC(=O)[C@H](C(C)C)NC(=O)[C@@H]1CCCN1C3=O)C(=O)N1CCC[C@H]1C(=O)NCC(=O)N[C@@H](C)C(=O)N2 (cyclo(ACICRGNGYCGSGSDGGVCPVIL[X2]CRRDSDCPG); disulfide 2-19, 4-25, 10-31) | > 0.109 | > 50000 | 21 | –
